Assay results published in ChEMBL document CHEMBL1201862, “PubChem BioAssay data set” (2004).
Structures can show the parent of a compound that is named as a salt.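 A five-concentration, 48-hour dose response in 96-well plates underlies each endpoint, interpolated linearly between surrounding concentrations. Abbreviation: GI50, concentration required for 50% inhibition of growth.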 The source made the active and inactive calls. No stated cut-off is given here; in the data, active = GI50 up to about 1.1 µM and inactive = higher. Where a SMILES comes first, the peptide text is derived from it. [ ]: non-standard residue; d: D form. The star is where a group is joined. ξ: configuration not given here. Propanoyl(3-(4-MeO-Ph)) = COc1ccc(CCC(=O)*)cc1; Thr(3ξ) = CC(O)[C@H](N)C(=O)O; dNMeL = CN[C@H](CC(C)C)C(=O)O; OBn = c1ccc(CO*)cc1; ξLac = CC(O)C(=O)O

How the values were obtained:
Test in all cases: NCI anticancer screen, dose series, 48 h
786-0 = tested on: 786-0
A498 = tested on: A498
A549 = tested on: A549
ACHN = tested on: ACHN
BT-549 = tested on: BT-549
CAKI-1 = tested on: CAKI-1
CCRF-CEM = tested on: CCRF-CEM
COLO 205 = tested on: COLO 205
DU-145 = tested on: DU-145
EKVX = tested on: EKVX
HCC 2998 = tested on: HCC 2998
HCT-116 = tested on: HCT-116
HCT-15 = tested on: HCT-15
HL-60 = tested on: HL-60
HOP-62 = tested on: HOP-62
HOP-92 = tested on: HOP-92
HT-29 = tested on: HT-29
Hs-578T = tested on: Hs-578T
IGROV-1 = tested on: IGROV-1
K562 = tested on: K562
KM12 = tested on: KM12
LOX IMVI = tested on: LOX IMVI
M14 = tested on: M14
MCF7 = tested on: MCF7
MDA-MB-231 = tested on: MDA-MB-231
MDA-MB-435 = tested on: MDA-MB-435
MDA-N = tested on: MDA-N
MOLT-4 = tested on: MOLT-4
Malme-3M = tested on: Malme-3M
NCI-H226 = tested on: NCI-H226
NCI-H23 = tested on: NCI-H23
NCI-H460 = tested on: NCI-H460
NCI-H522 = tested on: NCI-H522
NCI/ADR-RES = tested on: NCI/ADR-RES
OVCAR-3 = tested on: OVCAR-3
OVCAR-4 = tested on: OVCAR-4
OVCAR-5 = tested on: OVCAR-5
OVCAR-8 = tested on: OVCAR-8
PC-3 = tested on: PC-3
RPMI-8226 = tested on: RPMI-8226
RXF 393 = tested on: RXF 393
SF-268 = tested on: SF-268
SF-295 = tested on: SF-295
SF-539 = tested on: SF-539
SK-MEL-28 = tested on: SK-MEL-28
SK-MEL-2 = tested on: SK-MEL-2
SK-MEL-5 = tested on: SK-MEL-5
SK-OV-3 = tested on: SK-OV-3
SN12C = tested on: SN12C
SNB-19 = tested on: SNB-19
SNB-75 = tested on: SNB-75
SR = tested on: SR
SW-620 = tested on: SW-620
T47D = tested on: T47D
TK-10 = tested on: TK-10
U-251 = tested on: U-251
UACC-257 = tested on: UACC-257
UACC-62 = tested on: UACC-62
UO-31 = tested on: UO-31
DMS-114 = tested on: DMS-114
KM-20L2 = tested on: KM-20L2

`COc1ccc(CCC(=O)OC(C)[C@H](NC(=O)[C@@H](CC(C)C)N(C)C(=O)[C@@H]2CCCN2C(=O)C(C)O)C(=O)OCc2ccccc2)cc1` (stereo not given in full) (H-[ξLac]P[dNMeL][Thr(3ξ)](Propanoyl(3-(4-MeO-Ph)))-OBn) was tested, and the GI50 (786-0) was 35.2 µM (inactive), the GI50 (A498) was 28.7 µM (inactive) and the GI50 (A549) was 52.4 µM (inactive). The GI50 (ACHN) was 41.6 µM (inactive), the GI50 (BT-549) was 43.6 µM (inactive) and the GI50 (CAKI-1) was > 100 µM (inactive). The GI50 (CCRF-CEM) was 26.9 µM (inactive), the GI50 (COLO 205) was 19.5 µM (inactive) and the GI50 (DU-145) was 62.5 µM (inactive). For the same compound, the GI50 (EKVX) was 80.7 µM (inactive), the GI50 (HCC 2998) was 40.4 µM (inactive) and the GI50 (HCT-116) was 43.7 µM (inactive). The GI50 (HCT-15) was 32.3 µM, the GI50 (HL-60) was 28.2 µM (inactive) and the GI50 (HOP-62) was 99.8 µM (inactive). The GI50 (HOP-92) was 19.1 µM (inactive), the GI50 (HT-29) was 36.5 µM (inactive) and the GI50 (Hs-578T) was 12.9 µM (inactive). The GI50 (IGROV-1) was 30.5 µM (inactive), the GI50 (K562) was 27.8 µM (inactive) and the GI50 (KM12) was 27.9 µM (inactive). For the same compound, the GI50 (LOX IMVI) was 17.9 µM (inactive), the GI50 (M14) was 16.9 µM (inactive) and the GI50 (MCF7) was 38.1 µM (inactive). For the same compound, the GI50 (MDA-MB-231) was 19.3 µM (inactive), the GI50 (MDA-MB-435) was 21.8 µM (inactive) and the GI50 (MDA-N) was 32.4 µM (inactive). The GI50 (MOLT-4) was 24.3 µM (inactive), the GI50 (Malme-3M) was 20.8 µM (inactive) and the GI50 (NCI-H226) was 30.4 µM (inactive). For the same compound, the GI50 (NCI-H23) was 41.4 µM (inactive), the GI50 (NCI-H460) was 64.4 µM (inactive) and the GI50 (NCI-H522) was 24.3 µM (inactive). The GI50 (NCI/ADR-RES) was 27.5 µM (inactive), the GI50 (OVCAR-3) was 29.8 µM (inactive) and the GI50 (OVCAR-4) was 73.8 µM (inactive). The GI50 (OVCAR-5) was > 100 µM (inactive), the GI50 (OVCAR-8) was 96.2 µM (inactive) and the GI50 (PC-3) was 30.5 µM (inactive). The GI50 (RPMI-8226) was 28.7 µM (inactive), the GI50 (RXF 393) was 22.1 µM (inactive) and the GI50 (SF-268) was 31.5 µM (inactive). For the same compound, the GI50 (SF-295) was 35.2 µM (inactive), the GI50 (SF-539) was 24.6 µM (inactive) and the GI50 (SK-MEL-28) was 17.8 µM (inactive). The GI50 (SK-MEL-2) was 16.7 µM (inactive), the GI50 (SK-MEL-5) was 15.5 µM (inactive) and the GI50 (SK-OV-3) was 84.1 µM (inactive). For the same compound, the GI50 (SN12C) was 34.9 µM (inactive), the GI50 (SNB-19) was 66.2 µM (inactive) and the GI50 (SNB-75) was 19.9 µM (inactive). For the same compound, the GI50 (SR) was 34.4 µM (inactive), the GI50 (SW-620) was 32.3 µM (inactive) and the GI50 (T47D) was 33.6 µM (inactive). The GI50 (TK-10) was 18.9 µM (inactive), the GI50 (U-251) was 26.5 µM (inactive) and the GI50 (UACC-257) was 18.4 µM (inactive). For the same compound, the GI50 (UACC-62) was 19.2 µM (inactive) and the GI50 (UO-31) was 40.5 µM (inactive).
With `COc1ccc2c(=O)c(C)c(-c3ccccc3)oc2c1CN(C)C` [DIMEFLINE HYDROCHLORIDE] the GI50 (A498) was 56.4 µM (inactive), the GI50 (DMS-114) was > 100 µM (inactive) and the GI50 (EKVX) was > 100 µM (inactive). The GI50 (HCT-15) was greater than 100 µM, the GI50 (K562) was 57.1 µM (inactive) and the GI50 (KM-20L2) was 58.2 µM (inactive). For the same compound, the GI50 (LOX IMVI) was 69.3 µM (inactive), the GI50 (NCI-H460) was 82.8 µM (inactive) and the GI50 (OVCAR-3) was > 100 µM (inactive). The GI50 (OVCAR-5) was 47.1 µM (inactive), the GI50 (RXF 393) was 76 µM (inactive) and the GI50 (SF-268) was > 100 µM (inactive). For the same compound, the GI50 (SK-MEL-28) was > 100 µM (inactive), the GI50 (SK-MEL-5) was 55 µM (inactive) and the GI50 (SN12C) was > 100 µM (inactive). The GI50 (SR) was 84.5 µM (inactive), the GI50 (SW-620) was > 100 µM (inactive) and the GI50 (TK-10) was 99.8 µM (inactive). For the same compound, the GI50 (U-251) was > 100 µM (inactive), the GI50 (UACC-257) was > 100 µM (inactive) and the GI50 (UO-31) was 85.7 µM (inactive).
